# Patent publication US9242996B2 (Novartis AG, priority 2013, dated 2016)
# How the values were obtained:
# activated ERK2 [1] = target: T1, activated ERK2 (Homo sapiens (Human), UniProt P28482); experiment: Activated ERK2 (20 pM) Kinase Assay (AlphaScreen, ERKtide phosphorylation); assay type: biochemical; settings: 0.02 nM ERK2, 400 nM ERKtide peptide, 35 μM ATP, 30 min preincubation
# Outline: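 AlphaScreen read-out (anti-phospho-EGFR Thr669 antibody, protein A acceptor/streptavidin donor beads) of ERKtide (400 nM) phosphorylation by 20 pM activated ERK2 at 35 μM ATP.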
# activated ERK2 [2] = target: T1, activated ERK2; experiment: Activated ERK2 kinase assay, ERK2 New conditions (AlphaScreen, ERKtide phosphorylation); assay type: biochemical; settings: 0.25 nM ERK2, 200 nM ERKtide peptide, 35 μM ATP, 30 min preincubation
# Outline: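 Read-out is AlphaScreen with anti-phospho-EGFR (Thr669) antibody after EDTA quench and overnight dark incubation. Reaction: 0.25 nM ERK2, 30 min compound preincubation, then 200 nM ERKtide plus 35 µM ATP for 2–3 h at ambient temperature, pH 7.5. IC50 by four-parameter fit.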
# T1 sequence (P28482 whole entry): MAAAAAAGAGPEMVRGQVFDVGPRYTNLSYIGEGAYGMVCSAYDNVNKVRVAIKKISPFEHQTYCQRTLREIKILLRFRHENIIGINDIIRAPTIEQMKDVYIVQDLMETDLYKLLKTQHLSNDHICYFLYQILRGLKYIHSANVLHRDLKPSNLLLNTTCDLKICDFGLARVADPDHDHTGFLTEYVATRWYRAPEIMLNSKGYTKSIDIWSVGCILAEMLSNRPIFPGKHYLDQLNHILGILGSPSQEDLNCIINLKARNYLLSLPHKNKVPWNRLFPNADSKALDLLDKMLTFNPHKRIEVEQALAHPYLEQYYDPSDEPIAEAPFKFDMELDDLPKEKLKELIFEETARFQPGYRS
SMILES,IC50 (activated ERK2 [1]) [nM],IC50 (activated ERK2 [2]) [nM]
"Cc1c(-c2cnc(N)c(-c3ccc(C(=O)N[C@H](CO)c4cccc(Cl)c4)c(F)c3)c2)cnn1C [Example 151, (S)-4-(2-amino-5-(1,5-dimethyl-1H-pyrazol-4-yl)pyridin-3-yl)-N-(1-(3-chlorophenyl)-2-hydroxyethyl)-2-fluorobenzamide]",0.0233,0.115
"Cc1nn(C)cc1-c1cnc(N)c(-c2ccc(C(=O)N[C@H](CO)c3cccc(Cl)c3)c(F)c2)c1 [Example 152, (S)-4-(2-amino-5-(1,3-dimethyl-1H-pyrazol-4-yl)pyridin-3-yl)-N-(1-(3-chlorophenyl)-2-hydroxyethyl)-2-fluorobenzamide]",0.041,0.145
"COCCn1cc(-c2cnc(N)c(-c3ccc(C(=O)N[C@H](CO)c4cccc(Cl)c4)c(F)c3)c2)cn1 [Example 172, (S)-4-(2-amino-5-(1-(2-methoxyethyl)-1H-pyrazol-4-yl)pyridin-3-yl)-N-(1-(3-chlorophenyl)-2-hydroxyethyl)-2-fluorobenzamide]",0.0785,0.158
"Nc1ncc([C@H]2CC[C@H](N)CC2)nc1-c1ccc(C(=O)N[C@H](CO)c2cccc(Cl)c2)c(F)c1 [Example 191, 4-(3-amino-6-((1r,45)-4-aminocyclohexyl)pyrazin-2-yl)-N—((S)-1-(3-chlorophenyl)-2-hydroxyethyl)-2-fluorobenzamide]",1.49,4.53
"Cc1cccc([C@@H](CO)NC(=O)c2ccc(-c3cc(-c4cn(C)nc4C)cnc3N)cc2F)c1 [Example 283, (S)-4-(2-amino-5-(1,3-dimethyl-1H-pyrazol-4-yl)pyridin-3-yl)-2-fluoro-N-(2-hydroxy-1-(m-tolyl)ethyl) benzamide]",0.0378,0.169
"CCn1cc(-c2cnc(N)c(-c3ccc(C(=O)N[C@H](CO)c4cccc(Cl)c4)c(F)c3)c2)cn1 [Example 297, (S)-4-(2-amino-5-(1-ethyl-1H-pyrazol-4-yl)pyridin-3-yl)-N-(1-(3-chlorophenyl)-2-hydroxyethyl)-2-fluorobenzamide]",0.0715,0.153
"Cn1nncc1-c1cnc(N)c(-c2ccc(C(=O)N[C@H](CO)c3cccc(Cl)c3)c(F)c2)c1 [Example 300, (S)-4-(2-amino-5-(1-methyl-1H-1,2,3-triazol-5-yl)pyridin-3-yl)-N-(1-(3-chlorophenyl)-2-hydroxyethyl)-2-fluorobenzamide]",0.0655,0.228
"Cc1cccc([C@@H](CO)NC(=O)c2ccc(-c3nc(C4CCOCC4)cnc3N)cc2F)c1 [Example 309, (S)-4-(3-amino-6-(tetrahydro-2H-pyran-4-yl)pyrazin-2-yl)-2-fluoro-N-(2-hydroxy-1-(m-tolyl)ethyl) benzamide]",0.0263,0.104
"C[C@@H](NC(=O)c1ccc(-c2nc(C3CCCCC3)cnc2N)cc1F)c1cc(F)cc(S(C)(=O)=O)c1 [Example 423, (R)-4-(3-amino-6-cyclo-hexylpyrazin-2-yl)-2-fluoro-N-(1-(3-fluoro-5-(methylsulfonyl)phenyl)ethyl) benzamide]",0.0614,0.147
"C[C@@H](NC(=O)c1ccc(-c2nc(C3=CCCCC3)cnc2N)cc1F)c1cc(F)cc(S(C)(=O)=O)c1 [Example 426, (R)-4-(3-amino-6-(cyclohex-1-en-1-yl)pyrazin-2-yl)-2-fluoro-N-(1-(3-fluoro-5-(methylsulfonyl)phenyl)ethyl) benzamide]",0.585,1.36
"Nc1ncc(C2=CCOCC2)nc1-c1ccc(C(=O)NCc2ccccc2)c(F)c1 [Example 427, 4-(3-amino-6-(3,6-dihydro-2H-pyran-4-yl)pyrazin-2-yl)-N-benzyl-2-fluorobenzamide]",6.41,16.7
"Nc1ncc(C2=CCOCC2)nc1-c1ccc(C(=O)N[C@H](CO)c2cccc(Cl)c2)c(F)c1 [Example 428, (S)-4-(3-amino-6-(3,6-dihydro-2H-pyran-4-yl)pyrazin-2-yl)-N-(1-(3-chlorophenyl)-2-hydroxyethyl)-2-fluorobenzamide]",0.0759,0.219
"C[C@@H](NC(=O)c1ccc(-c2nc(C3=CCOCC3)cnc2N)cc1F)c1cc(F)cc(S(C)(=O)=O)c1 [Example 429, (R)-4-(3-amino-6-(3,6-dihydro-2H-pyran-4-yl)pyrazin-2-yl)-2-fluoro-N-(1-(3-fluoro-5-(methylsulfonyl)phenyl)ethyl) benzamide]",0.221,0.503

# Second part, the compound after the results:
IC50 (activated ERK2 [1]) [nM],IC50 (activated ERK2 [2]) [nM],SMILES
9.42,18.9,"CO[C@H]1CC[C@H](c2cnc(N)c(-c3ccc(C(=O)NCc4ccccc4)c(F)c3)n2)CC1 [Example 116, 4-(3-amino-6-((1r,4r)-4-methoxycyclohexyl)pyrazin-2-yl)-N-benzyl-2-fluorobenzamide]"
0.0604,0.243,"Cc1nn(C)cc1-c1cnc(N)c(-c2ccc(C(=O)N[C@H](CO)c3cccc(Cl)c3)c(F)c2)n1 [Example 127, (S)-4-(3-amino-6-(1,3-dimethyl-1H-pyrazol-4-yl)pyrazin-2-yl)-N-(1-(3-chlorophenyl)-2-hydroxyethyl)-2-fluorobenzamide]"
4.93,8.04,"Nc1ncc([C@H]2CC[C@@H](N)CC2)nc1-c1ccc(C(=O)N[C@H](CO)c2cccc(Cl)c2)c(F)c1 [Example 192, 4-(3-amino-6-((1s,4R)-4-aminocyclohexyl)pyrazin-2-yl)-N—((S)-1-(3-chlorophenyl)-2-hydroxyethyl)-2-fluorobenzamide]"
0.0923,0.191,"Cn1cc(-c2cnc(N)c(-c3ccc(C(=O)N[C@H](CO)c4cccc(Cl)c4)c(F)c3)c2)cn1 [Example 263, (S)-4-(2-amino-5-(1-methyl-1H-pyrazol-4-yl)pyridin-3-yl)-N-(1-(3-chlorophenyl)-2-hydroxyethyl)-2-fluorobenzamide]"
0.429,0.518,"Nc1ncc(C2CCOCC2)nc1-c1ccc(C(=O)N[C@H](CO)c2cccc(F)c2)c(F)c1 [Example 279, (S)-4-(3-amino-6-(tetrahydro-2H-pyran-4-yl)pyrazin-2-yl)-2-fluoro-N-(1-(3-fluorophenyl)-2-hydroxyethyl) benzamide]"
0.0814,0.192,"Cn1cc(-c2cnc(N)c(-c3ccc(C(=O)N[C@H](CO)c4cc(F)cc(Cl)c4)c(F)c3)c2)cn1 [Example 289, (S)-4-(2-amino-5-(1-methyl-1H-pyrazol-4-yl)pyridin-3-yl)-N-(1-(3-chloro-5-fluorophenyl)-2-hydroxyethyl)-2-fluorobenzamide]"
6.38,12.6,"Nc1ncc(C2CCCCC2)nc1-c1ccc(C(=O)NCc2ccccc2)c(F)c1 [Example 421, 4-(3-amino-6-cyclo-hexylpyrazin-2-yl)-N-benzyl-2-fluorobenzamide]"
113,155,"Nc1ncc(C2=CCCCC2)nc1-c1ccc(C(=O)NCc2ccccc2)c(F)c1 [Example 424, 4-(3-amino-6-(cyclohex-1-en-1-yl)pyrazin-2-yl)-N-benzyl-2-fluorobenzamide]"
0.359,0.907,"Nc1ncc(C2=CCCCC2)nc1-c1ccc(C(=O)N[C@H](CO)c2cccc(Cl)c2)c(F)c1 [Example 425, (S)-4-(3-amino-6-(cyclohex-1-en-1-yl)pyrazin-2-yl)-N-(1-(3-chlorophenyl)-2-hydroxyethyl)-2-fluorobenzamide]"
